US7635716B2, “Substituted cyclopentanes or cyclopentanones as therapeutic agents” (Allergan, Inc., priority 2005, dated 2009)
Like-named read-outs stand apart in the source and are kept apart here.

Assays:
[1] = target: hEP2 (Homo sapiens, UniProt P43116); assay: hEP2 cAMP functional assay; assay type: cell-based; details: Table 1, second part
[2] = target: T1, hDP/Gqs5 (Homo sapiens, UniProt Q13258); assay: FLIPR calcium signal, HEK-293(EBNA) cells; assay type: cell-based
T1 construct: expressed in transfected cells; host or cells: HEK-293(EBNA) cells
T1 sequence (Q13258 1-359): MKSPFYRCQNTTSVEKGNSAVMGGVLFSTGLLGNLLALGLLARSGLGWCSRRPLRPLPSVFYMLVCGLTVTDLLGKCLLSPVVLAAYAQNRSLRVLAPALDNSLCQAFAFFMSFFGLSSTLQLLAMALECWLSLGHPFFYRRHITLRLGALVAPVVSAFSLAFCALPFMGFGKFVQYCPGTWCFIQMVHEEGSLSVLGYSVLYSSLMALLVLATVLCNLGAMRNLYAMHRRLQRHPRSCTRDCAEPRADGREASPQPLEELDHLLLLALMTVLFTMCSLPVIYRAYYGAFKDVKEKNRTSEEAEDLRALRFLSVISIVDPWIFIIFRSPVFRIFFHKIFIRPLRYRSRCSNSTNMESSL

[3] = system: normotensive dogs; assay: Intraocular pressure (IOP) in normotensive dogs; assay type: in vivo, dog; details: Canis lupus familiaris, topical, 120 h, dosing once daily for 5 days, read-out: maximum IOP decrease from baseline (percent)
Procedure: (§1) (Z)-7-[(1R,2S,3R,5R)-5-Chloro-2-(3,5-dichloro-phenoxymethyl)-3-hydroxy-cyclopentyl]-hept-5-enoic acid (15b) was tested at multiple concentrations in normotensive dogs, dosing once daily for 5 days. At 0.05%, the maximum IOP decrease from baseline was 4.3 mmHg (30%) at 6 h; the maximum OSH score was 0.6 at 6 h. […] This compound was also tested in laser-induced hypertensive monkeys, using one single day dose. At 0.1%, the maximum IOP decrease from baseline was 6 mmHg (19%) at 6 h.
(§2) (Z)-7-[(1R,2S,3R,5R)-5-Chloro-2-(3,5-dichloro-phenoxymethyl)-3-hydroxy-cyclopentyl]-hept-5-enoic acid isopropyl ester (42b) was tested in normotensive dogs at 0.05%, dosing once daily for 5 days. The maximum intraocular pressure (IOP) decrease from baseline was 3 mmHg (19%) at 6 h; the maximum ocular surface hyperemia (OSH) score was 0.6 at 74 h. This compound was also tested in laser-induced hypertensive monkeys, using one single day dose. At 0.01%, the maximum IOP decrease from baseline was 6 mmHg (16%) at 6 h.

[4] = system: normotensive dogs; assay: Ocular surface hyperemia (OSH) in normotensive dogs; assay type: in vivo, dog; parameters: maximum OSH score: scale not given here; details: dosing once daily for 5 days
Procedure: as §1, §2

[5] = system: laser-induced hypertensive monkeys; assay: Intraocular pressure (IOP) in laser-induced hypertensive monkeys; assay type: in vivo, monkey; details: Primates, topical, 0.1%, one single day dose, read-out: maximum IOP decrease from baseline (percent)
Procedure: as §1, §2

[6] = Table 1, first part, triplicate, read-out: functional data (EC50) hDP
[7] = Table 1, second part, quantity not given, values match functional data (EC50) of first part, read-out: Other Receptors hDP

Chain of hEP2 (P43116 whole entry): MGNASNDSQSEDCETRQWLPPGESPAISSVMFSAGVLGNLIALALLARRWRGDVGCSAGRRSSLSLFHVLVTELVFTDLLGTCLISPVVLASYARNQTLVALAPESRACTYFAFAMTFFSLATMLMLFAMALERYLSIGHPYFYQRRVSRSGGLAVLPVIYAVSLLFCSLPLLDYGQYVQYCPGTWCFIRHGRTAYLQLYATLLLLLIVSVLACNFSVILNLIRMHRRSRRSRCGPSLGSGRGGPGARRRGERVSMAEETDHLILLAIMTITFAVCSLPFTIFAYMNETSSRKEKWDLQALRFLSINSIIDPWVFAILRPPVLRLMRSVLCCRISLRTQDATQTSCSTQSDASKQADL

SMILES	EC50 [1] [µM]	EC50 [2, 6] [µM]	EC50 [2, 7] [µM]	maximum OSH score ([4]; 0.05%)	time of maximum OSH score ([4]; 0.05%) [h]	maximum OSH score ([4]; 0.1%)	time of maximum OSH score ([4]; 0.1%) [h]	inhibition in vivo at 0.05 % ([3]; 0.05%) [%]	inhibition in vivo at 0.1 % ([3]; 0.1%) [%]	inhibition in vivo at 0.1 % [5] [%]
O=C(O)CCCCCC[C@@H]1[C@@H](COc2ccccc2)[C@H](O)C[C@H]1Cl [Example 10, 7-((1R,2S,3R,5R)-5-Chloro-3-hydroxy-2-phenoxymethyl-cyclopentyl)-heptanoic acid]	0.047	> 10	> 10	–	–	–	–	–	–	–
O=C(O)CCC/C=C\C[C@@H]1[C@@H](COc2cc(Cl)cc(Cl)c2)[C@H](O)C[C@H]1Cl [Example 12, (Z)-7-[(1R,2S,3R,5R)-5-Chloro-2-(3,5-dichloro-phenoxymethyl)-3-hydroxy-cyclopentyl]-hept-5-enoic acid]	0.0009	> 10	> 10	0.6	6	1.3	6	30	34	19

Further lines, with some results ahead:

EC50 [1] [µM]	EC50 [2, 6] [µM]	EC50 [2, 7] [µM]	maximum OSH score ([4]; 0.05%)	time of maximum OSH score ([4]; 0.05%) [h]	maximum OSH score ([4]; 0.1%)	time of maximum OSH score ([4]; 0.1%) [h]	SMILES	inhibition in vivo at 0.05 % ([3]; 0.05%) [%]	inhibition in vivo at 0.1 % ([3]; 0.1%) [%]	inhibition in vivo at 0.1 % [5] [%]
0.234	> 10	> 10	–	–	–	–	O=C(O)CCCCCC[C@H]1C(=O)CC[C@@H]1COc1ccccc1 [Example 6, 7-((1R,5S)-2-Oxo-5-phenoxymethyl-cyclopentyl)-heptanoic acid]	–	–	–
–	> 10	> 10	–	–	–	–	O=C(O)CCC/C=C\C[C@@H]1[C@@H](COc2ccccc2)[C@H](O)C[C@H]1Cl [Example 8, (Z)-7-((1R,2S,3R,5R)-5-Chloro-3-hydroxy-2-phenoxymethyl-cyclopentyl)-hept-5-enoic acid]	–	–	–
0.014	> 10	> 10	–	–	–	–	O=C(O)CCCCCC[C@@H]1[C@@H](COc2cc(Cl)cc(Cl)c2)[C@H](O)C[C@H]1Cl [Example 14, 7-[(1R,2S,3R,5R)-5-Chloro-2-(3,5-dichloro-phenoxymethyl)-3-hydroxy-cyclopentyl]-heptanoic acid]	–	–	–
